In the assay the target is SARS2 coronavirus 3CL protease (Severe acute respiratory syndrome coronavirus 2, UniProt P0DTD1). Kind of assay: SARS2 Coronavirus 3CL Protease Assay (FRET). Type of assay: biochemical. To be noted: 5 nM protease pre-incubated with compound 30 minutes; 15 uM peptide substrate; 4 h room temperature; read-out: FRET Potency (nM); IC50 values in the SARS2 3CLPro FRET assay. How it is done: The enzymatic activity of SARS2 coronavirus 3CL protease was determined in a FRET (fluorescence resonance energy transfer)-based assay measuring the cleavage of a peptide substrate by recombinantly expressed and purified enzyme. Cleavage of the peptide SEQ ID NO: 1 (CPC Scientific) by SARS2 3CL protease was measured in reaction buffer (50 mM Hepes pH 7.5, 0.01% Triton X-100, 0.01% BSA, 2 mM DTT). […] Room temperature reactions (4 h) were quenched by addition of a high dose of inhibitor and read on an appropriate plate reader (excitation wavelength=495 nm, emission wavelength=520 nm). Data were analyzed by a standard 4 parameter fit to determine IC50 values.
For the molecule `CNC(=O)C(=O)[C@H](CCC(C)(F)F)NC(=O)c1cc(Cl)ccc1NC(=O)C(C)c1cscn1` (stereo partly drawn) [Example 10, 5-chloro-N-[(1S)-4,4-difluoro-1-[2-(methylamino)-2-oxo-acetyl]pentyl]-2-(2-thiazol-4-ylpropanoylamino)benzamide], the IC50 stood at 7 nM.

As for `CNC(=O)C(=O)[C@H](CCC(C)(F)F)NC(=O)c1cc(Cl)ccc1NC(=O)C1CC12CCOCC2` (stereo partly drawn) [Example 11, N-[4-chloro-2-[[(1S)-4,4-difluoro-1-[2-(methylamino)-2-oxo-acetyl]pentyl]carbamoyl]phenyl]-6-oxaspiro[2.5]octane-2-carboxamide], the IC50 was 7.7 nM.

On to `CC(F)(F)CC[C@H](NC(=O)c1cc(Cl)ccc1NC(=O)c1cccc(C(F)(F)F)c1)C(=O)C(=O)NC1CC1` [Example 12, 5-chloro-N-[(1S)-1-[2-(cyclopropylamino)-2-oxo-acetyl]-4.4-difluoro-pentyl]-2-[[3-(trifluoromethyl)benzoyl]amino]benzamide], for which the IC50 is 7.9 nM.

Consider `CNC(=O)C(=O)[C@H](CCC(C)(F)F)NC(=O)c1cc(Cl)ccc1NC(=O)C1CC(F)(F)C1` [Example 13, 5-chloro-2-[(3,3-difluorocyclobutanecarbonyl)amino]-N-[(1S)-4,4-difluoro-1-[2-(methylamino)-2-oxo-acetyl]pentyl]benzamide], for which the IC50 was 8 nM.

For `CNC(=O)C(=O)[C@H](CCC(C)(F)F)NC(=O)c1cc(Cl)ccc1NC(=O)CCC(F)(F)F` [Example 14, 5-chloro-N-[(1S)-4,4-difluoro-1-[2-(methylamino)-2-oxo-acetyl]pentyl]-2-(4,4,4-trifluorobutanoylamino) benzamide], the IC50 stood at 8.2 nM.

With `CNC(=O)C(=O)[C@H](CCC(C)(F)F)NC(=O)c1cc(Cl)ccc1NC(=O)C1CCc2scnc21` (stereo partly drawn) [Example 15, N-[4-chloro-2-[[(1S)-4,4-difluoro-1-[2-(methylamino)-2-oxo-acetyl]pentyl]carbamoyl]phenyl]-5,6-dihydro-4H-cyclopenta[d]thiazole-4-carboxamide], the IC50 was determined as 8.4 nM.

In the case of `CNC(=O)C(=O)[C@H](CCC(C)(F)F)NC(=O)c1cc(Cl)ccc1NC(=O)C1CCOCC1` [Example 16, N-[4-chloro-2-[[(1S)-4,4-difluoro-1-[2-(methylamino)-2-oxo-acetyl]pentyl]carbamoyl]phenyl] tetrahydropyran-4-carboxamide], the IC50 was 8.5 nM.

Regarding `CNC(=O)C(=O)[C@H](CCC(C)(F)F)NC(=O)c1cc(Cl)ccc1NC(=O)c1cccc(C(F)(F)F)n1` [Example 17, N-[4-chloro-2-[[(1S)-4,4-difluoro-1-[2-(methylamino)-2-oxo-acetyl]pentyl]carbamoyl]phenyl]-6-(trifluoromethyl)pyridine-2-carboxamide], the IC50 was found to be 8.7 nM.

`CNC(=O)C(=O)[C@H](CCC(C)(F)F)NC(=O)c1cc(F)cnc1NC(=O)c1cccc(C(F)(F)F)c1` [Example 18, N-[(1S)-4,4-difluoro-1-[2-(methylamino)-2-oxo-acetyl]pentyl]-5-fluoro-2-[[3-(trifluoromethyl)benzoyl]amino]pyridine-3-carboxamide]: the IC50 stood at 9.8 nM.

For the molecule `CNC(=O)C(=O)[C@H](CCC(C)(F)F)NC(=O)c1cc(Cl)ccc1NC(=O)C1(C(F)(F)F)CC1` [Example 20, 5-chloro-N-[(1S)-4,4-difluoro-1-[2-(methylamino)-2-oxo-acetyl]pentyl]-2-[[1-(trifluoromethyl)cyclopropane-carbonyl]amino]benzamide], the IC50 was 11.6 nM.

As to `CNC(=O)C(=O)[C@H](CCC(C)(F)F)NC(=O)c1cc(Cl)cnc1NC(=O)c1cccc(C(F)(F)F)c1` [Example 21, 5-chloro-N-[(1S)-4,4-difluoro-1-[2-(methylamino)-2-oxo-acetyl]pentyl]-2-[[3-(trifluoromethyl)benzoyl]amino]pyridine-3-carboxamide], the IC50 turned out to be 11.7 nM.

Regarding `CNC(=O)C(=O)[C@H](CCC(C)(F)F)NC(=O)c1cc(Cl)ccc1NC(=O)C12CC(C(F)(F)F)(C1)C2` [Example 22, N-[4-chloro-2-[[(1S)-4,4-difluoro-1-[2-(methylamino)-2-oxo-acetyl]pentyl]carbamoyl]phenyl]-3-(trifluoromethyl)bicyclo[1.1.1] pentane-1-carboxamide], the IC50 was determined as 13 nM.

With `CNC(=O)C(=O)[C@H](CCC(C)(F)F)NC(=O)c1cc(Cl)ccc1NC(=O)[C@H]1CC1(F)F` [Example 23, 5-chloro-2-[[(1R)-2,2-difluorocyclopropanecarbonyl]amino]-N-[(1S)-4,4-difluoro-1-[2-(methylamino)-2-oxo-acetyl]pentyl]benzamide], the IC50 amounted to 13.2 nM.

Take `CNC(=O)C(=O)[C@H](CCC(C)(F)F)NC(=O)c1cc(Cl)cnc1NC(=O)c1cccc(F)c1` [Example 24, 5-chloro-N-[(1S)-4,4-difluoro-1-[2-(methylamino)-2-oxo-acetyl]pentyl]-2-[(3-fluorobenzoyl)amino]pyridine-3-carboxamide]: the IC50 stood at 14 nM.

In the case of `CNC(=O)C(=O)[C@H](CCC(C)(F)F)NC(=O)c1cc(Cl)ccc1NC(=O)[C@@H]1CCc2nccc(=O)n21` [Example 25, (6S)-N-[4-chloro-2-[[(1S)-4,4-difluoro-1-[2-(methylamino)-2-oxo-acetyl]pentyl]carbamoyl]phenyl]-4-oxo-7,8-dihydro-6H-pyrrolo[1,2-a]pyrimidine-6-carboxamide], the IC50 came to 14.8 nM.

Turning to `CNC(=O)C(=O)[C@H](CCC(C)(F)F)NC(=O)c1cc(Cl)ccc1NC(=O)C1CC12CCOCC2` (stereo partly drawn) [Example 26, N-[4-chloro-2-[[(1S)-4,4-difluoro-1-[2-(methylamino)-2-oxo-acetyl]pentyl]carbamoyl]phenyl]-6-oxaspiro[2.5]octane-2-carboxamide], the IC50 came to 15.1 nM.

In the case of `CC(F)(F)CC[C@H](NC(=O)c1cc(Cl)cnc1NC(=O)C12CC(C(F)(F)F)(C1)C2)C(=O)C(=O)NC1CC1` [Example 27, 5-chloro-N-[(1S)-1-[2-(cyclopropylamino)-2-oxo-acetyl]-4,4-difluoro-pentyl]-2-[[3-(trifluoromethyl)bicyclo[1.1.1]pentane-1-carbonyl]amino]pyridine-3-carboxamide], the IC50 stood at 17.4 nM.

In the case of `CNC(=O)C(=O)[C@H](CCC(C)(F)F)NC(=O)c1cc(F)cnc1NC(=O)C1CC(F)(F)C1` [Example 28, 2-[(3,3-difluorocyclobutanecarbonyl)amino]-N-[(1S)-4,4-difluoro-1-[2-(methylamino)-2-oxo-acetyl]pentyl]-5-fluoro-pyridine-3-carboxamide], the IC50 turned out to be 19.8 nM.

Regarding `CC(F)(F)CC[C@H](NC(=O)c1cc(Cl)cnc1NC(=O)c1cccc(F)c1)C(=O)C(=O)NC1CC1` [Example 29, 5-chloro-N-[(1S)-1-[2-(cyclopropylamino)-2-oxo-acetyl]-4,4-difluoro-pentyl]-2-[(3-fluorobenzoyl)amino]pyridine-3-carboxamide], the IC50 came to 20.4 nM.

With `CNC(=O)C(=O)[C@H](CCC(C)(F)F)NC(=O)c1cc(Cl)ccc1NC(=O)C1CC1C(F)(F)F` (stereo partly drawn) [Example 30, 5-chloro-N-[(1S)-4,4-difluoro-1-[2-(methylamino)-2-oxo-acctyl]pentyl]-2-[[2-(trifluoromethyl)cyclopropane-carbonyl]amino]benzamide], the IC50 came out at 20.7 nM.

Consider `CNC(=O)C(=O)[C@H](CCC(C)(F)F)NC(=O)c1cc(Cl)ccc1NC(=O)C1CC1C(F)(F)F` (stereo partly drawn) [Example 32, 5-chloro-N-[(1S)-4,4-difluoro-1-[2-(methylamino)-2-oxo-acetyl]pentyl]-2-[[2-(trifluoromethyl)cyclopropane-carbonyl]amino]benzamide], for which the IC50 turned out to be 21.3 nM.

Regarding `CNC(=O)C(=O)[C@H](CCC(C)(F)F)NC(=O)c1cc(F)cnc1NC(=O)c1cccc(F)c1` [Example 34, N-[(1S)-4,4-difluoro-1-[2-(methylamino)-2-oxo-acetyl]pentyl]-5-fluoro-2-[(3-fluorobenzoyl)amino]pyridine-3-carboxamide], the IC50 came to 23.8 nM.

For `CNC(=O)C(=O)[C@H](CCC(C)(F)F)NC(=O)c1cc(F)cnc1NC(=O)C12CC(F)(C1)C2` [Example 35, N-[(1S)-4,4-difluoro-1-[2-(methylamino)-2-oxo-acetyl]pentyl]-5-fluoro-2-[(3-fluorobicyclo[1.1.1]pentane-1-carbonyl)amino]pyridine-3-carboxamide], the IC50 turned out to be 23.9 nM.

As to `CNC(=O)C(=O)[C@H](CCC(C)(F)F)NC(=O)c1cc(Cl)cnc1NC(=O)C1(C(F)(F)F)CC1` [Example 36, 5-chloro-N-[(1S)-4,4-difluoro-1-[2-(methylamino)-2-oxo-acetyl]pentyl]-2-[[1-(trifluoromethyl)cyclopropane-carbonyl]amino]pyridine-3-carboxamide], the IC50 was 24.4 nM.

`CNC(=O)C(=O)[C@H](CCC(C)(F)F)NC(=O)c1cc(C#N)ccc1NC(=O)C12CC(C(F)(F)F)(C1)C2` [Example 37, N-[4-cyano-2-[[(1S)-4,4-difluoro-1-[2-(methylamino)-2-oxo-acetyl]pentyl]carbamoyl]phenyl]-3-(trifluoromethyl)bicyclo[1.1.1] pentane-1-carboxamide]: the IC50 is 31.1 nM.

Turning to `CNC(=O)C(=O)[C@H](CCC(C)(F)F)NC(=O)c1cc(Cl)cnc1NC(=O)C12CC(F)(C1)C2` [Example 38, 5-chloro-N-[(1S)-4,4-difluoro-1-[2-(methylamino)-2-oxo-acetyl]pentyl]-2-[(3-fluorobicyclo[1.1.1]pentane-1-carbonyl)amino]pyridine-3-carboxamide], the IC50 came to 40.4 nM.
